Experimental data as given in patent publication US11452717B2, “Small molecule activators of nicotinamide phosphoribosyltransferase (NAMPT) and uses thereof” (Sanford Burnham Prebys Medical Discovery Institute, priority 2017, dated 2022).
pEC50: −log10 of the molar value.

Each molecule was assayed against NAMPT enzyme (Homo sapiens (Human), UniProt P43490) (assay: Enzyme Assay and NMN Detection (NAMPT reaction, fluorescence detection of NMN)). Conditions: Table B-1; NAMPT activation, NMN formation.
Sequence of NAMPT enzyme (P43490 whole entry, species assumed): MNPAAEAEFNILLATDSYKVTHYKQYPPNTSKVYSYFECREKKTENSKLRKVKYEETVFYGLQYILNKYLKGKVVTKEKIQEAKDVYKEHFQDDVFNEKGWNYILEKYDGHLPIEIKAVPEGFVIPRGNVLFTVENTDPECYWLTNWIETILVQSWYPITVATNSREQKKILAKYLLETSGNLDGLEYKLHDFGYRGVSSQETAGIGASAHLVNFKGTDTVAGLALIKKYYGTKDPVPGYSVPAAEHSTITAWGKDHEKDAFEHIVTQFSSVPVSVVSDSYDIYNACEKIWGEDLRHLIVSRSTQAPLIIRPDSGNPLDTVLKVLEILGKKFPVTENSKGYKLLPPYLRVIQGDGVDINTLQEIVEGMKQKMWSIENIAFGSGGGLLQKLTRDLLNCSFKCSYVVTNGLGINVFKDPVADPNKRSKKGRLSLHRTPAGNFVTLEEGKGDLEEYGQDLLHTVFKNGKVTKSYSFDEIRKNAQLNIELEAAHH
Type: biochemical
Outline: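 Reaction in 50 mM HEPES pH 7.5, 5 mM MgCl2, 0.1% Prionex, 0.005% Tween 20, 1 mM TCEP at room temperature, with 16 nM NAMPT, 120 uM ATP, 5 uM nicotinamide, 6.25 uM PRPP, 0.04 U/ml pyrophosphatase for 2 h. Stopped with acetophenone/KOH then formic acid; NMN quantified by fluorescence (ex380/em460) against calibration curve.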

`COc1ccc(Cn2cc(CNC(=O)Nc3ccc(NS(=O)(=O)c4ccccc4)cc3)cn2)cc1` [N-(4-{3-[1-(4-Methoxy-benzyl)-1H-pyrazol-4-ylmethyl]-ureido}-phenyl)-benzenesulfonamide] was tested. Which pEC50 did it give?
The pEC50 was < 4.70.

`O=C(NCc1cnco1)Nc1ccc(S(=O)(=O)NCc2ccccc2)cc1` [N-Benzyl-4-(3-oxazol-5-ylmethyl-ureido)-benzenesulfonamide] was tested. Which pEC50 did it give?
The pEC50 was 5.70 to 7.00.

With `O=C(NCc1cn[nH]c1)Nc1ccc(S(=O)(=O)NCc2ccccc2)cc1` [N-Benzyl-4-[3-(1H-pyrazol-4-ylmethyl)-ureido]-benzenesulfonamide] as the molecule, how does the pEC50 read?
The pEC50 was 5.70 to 7.00.

How did the pEC50 turn out when `CC(C)N(Cc1ccccc1)S(=O)(=O)c1ccc(NC(=O)NCc2cnco2)cc1` [N-Benzyl-N-isopropyl-4-(3-oxazol-5-ylmethyl-ureido)-benzenesulfonamide] was run?
The pEC50 was > 7.00.

`CC(C)N(Cc1ccccc1)S(=O)(=O)c1ccc(NC(=O)NCc2nccs2)cc1` [N-Benzyl-N-isopropyl-4-(3-thiazol-2-ylmethyl-ureido)-benzenesulfonamide] was tested. Which pEC50 did it give?
Its pEC50 is < 4.70.

`CC(C)N(Cc1ccccc1)S(=O)(=O)c1ccc(NC(=O)NCc2cncs2)cc1` [N-Benzyl-N-isopropyl-4-(3-thiazol-5-ylmethyl-ureido)-benzenesulfonamide] was tested. Which pEC50 did it give?
Its pEC50 is > 7.00.

`CC(C)N(Cc1ccccc1)S(=O)(=O)c1ccc(NC(=O)NCc2cn[nH]c2)cc1` [N-Benzyl-N-isopropyl-4-[3-(1H-pyrazol-4-ylmethyl)-ureido]-benzenesulfonamide] was tested. Which pEC50 did it give?
Its pEC50 is > 7.00.

With `O=C(NCc1cn[nH]c1)Nc1ccc(S(=O)(=O)NCC2CCC2)cc1` [N-Cyclobutylmethyl-4-[3-(1H-pyrazol-4-ylmethyl)-ureido]-benzenesulfonamide] as the molecule, how does the pEC50 read?
The pEC50 was 5.70 to 7.00.

With `CN(C1CCCC1)S(=O)(=O)c1ccc(NC(=O)NCc2cn[nH]c2)cc1` [N-Cyclopentyl-N-methyl-4-[3-(1H-pyrazol-4-ylmethyl)-ureido]-benzenesulfonamide] as the molecule, how does the pEC50 read?
The pEC50 was 5.70 to 7.00.

Same assay, conditions: Table B-2; NAMPT activation, NMN formation

How did the pEC50 turn out when `O=C(NCc1ccncc1)Nc1ccc(C(=O)NCCc2ccc(F)cc2)cc1` [N-(4-fluorophenethyl)-4-(3-(pyridin-4-ylmethyl)ureido)benzamide] was run?
Its pEC50 is 5.70 to 7.00.

How did the pEC50 turn out when `O=C(NCc1ccncc1)Nc1ccc(C(=O)Nc2ccc(F)cc2)cc1` [N-(4-fluorophenyl)-4-(3-(pyridin-4-ylmethyl)ureido)benzamide] was run?
The pEC50 was 5.70 to 7.00.

How did the pEC50 turn out when `CC(C)Oc1ccc(NC(=O)c2ccc(NC(=O)NCc3ccncc3)cc2)cc1` [N-(4-isopropoxyphenyl)-4-(3-(pyridin-4-ylmethyl)ureido)benzamide] was run?
Its pEC50 is 5.70 to 7.00.

How did the pEC50 turn out when `COc1ccc(NC(=O)c2ccc(NC(=O)NCc3ccncc3)cc2)cc1C` [N-(4-methoxy-3-methylphenyl)-4-(3-(pyridin-4-ylmethyl)ureido)benzamide] was run?
Its pEC50 is 5.70 to 7.00.

How did the pEC50 turn out when `COc1ccc(CNC(=O)c2ccc(NC(=O)NCc3ccncc3)cc2)cc1` [N-(4-methoxybenzyl)-4-(3-(pyridin-4-ylmethyl)ureido)benzamide] was run?
The pEC50 was < 4.70.

With `COc1ccc(CNS(=O)(=O)c2ccc(NC(=O)NCc3ccncc3)cc2)cc1` [N-(4-methoxybenzyl)-4-(3-(pyridin-4-ylmethyl)ureido)benzenesulfonamide] as the molecule, how does the pEC50 read?
Its pEC50 is 5.70 to 7.00.

How did the pEC50 turn out when `COc1ccc(NC(=O)c2ccc(NC(=O)NCc3ccncc3)cc2)cc1` [N-(4-methoxyphenyl)-4-(3-(pyridin-4-ylmethyl)ureido)benzamide] was run?
The pEC50 was 5.70 to 7.00.

How did the pEC50 turn out when `Cc1ccc(CNC(=O)c2ccc(NC(=O)NCc3ccncc3)cc2)cc1` [N-(4-methylbenzyl)-4-(3-(pyridin-4-ylmethyl)ureido)benzamide] was run?
Its pEC50 is < 4.70.

With `Cc1ccc(CNS(=O)(=O)c2ccc(NC(=O)NCc3ccncc3)cc2)cc1` [N-(4-methylbenzyl)-4-(3-(pyridin-4-ylmethyl)ureido)benzenesulfonamide] as the molecule, how does the pEC50 read?
Its pEC50 is 5.70 to 7.00.

How did the pEC50 turn out when `Cc1ccc(CCNC(=O)c2ccc(NC(=O)NCc3ccncc3)cc2)cc1` [N-(4-methylphenethyl)-4-(3-(pyridin-4-ylmethyl)ureido)benzamide] was run?
The pEC50 was 5.70 to 7.00.

How did the pEC50 turn out when `Cc1cc(NS(=O)(=O)c2ccc(NC(=O)NCc3ccncc3)cc2)no1` [N-(5-Methyl-isoxazol-3-yl)-4-(3-pyridin-4-ylmethyl-ureido)-benzenesulfonamide] was run?
Its pEC50 is < 4.70.

`O=C(NCc1ccncc1)Nc1ccc(C(=O)Nc2ccc3c(c2)OCO3)cc1` [N-(benzo[d][1,3]dioxol-5-yl)-4-(3-(pyridin-4-ylmethyl)ureido)benzamide] was tested. Which pEC50 did it give?
The pEC50 was 4.70 to 5.30.

`O=C(NCc1ccncc1)Nc1cccc(S(=O)(=O)NCC2CCC2)c1` [N-(cyclobutylmethyl)-3-(3-(pyridin-4-ylmethyl)ureido)benzenesulfonamide] was tested. Which pEC50 did it give?
The pEC50 was < 4.70.

How did the pEC50 turn out when `O=C(NCc1ccncc1)Nc1ccc(C(=O)NCC2CCCC2)cc1` [N-(cyclopentylmethyl)-4-(3-(pyridin-4-ylmethyl)ureido)benzamide] was run?
The pEC50 was 4.70 to 5.30.

With `O=C(NCc1ccncc1)Nc1ccc(C(=O)NCC2CC2)cc1` [N-(cyclopropylmethyl)-4-(3-(pyridin-4-ylmethyl)ureido)benzamide] as the molecule, how does the pEC50 read?
Its pEC50 is 5.30 to 5.70.

How did the pEC50 turn out when `O=C(NCc1ccncc1)Nc1ccc(C(=O)Nc2ccccn2)cc1` [N-(pyridin-2-yl)-4-(3-(pyridin-4-ylmethyl)ureido)benzamide] was run?
Its pEC50 is 4.70 to 5.30.

How did the pEC50 turn out when `O=C(NCc1ccncc1)Nc1ccc(C(=O)Nc2cccnc2)cc1` [N-(pyridin-3-yl)-4-(3-(pyridin-4-ylmethyl)ureido)benzamide] was run?
The pEC50 was < 4.70.

How did the pEC50 turn out when `O=C(NCc1ccncc1)Nc1ccc(C(=O)NCc2ccncc2)cc1` [N-(pyridin-4-ylmethyl)-4-(3-(pyridin-4-ylmethyl)ureido)benzamide] was run?
Its pEC50 is < 4.70.

With `CC(C)(C)NS(=O)(=O)c1ccc(NC(=O)NCc2ccncc2)cc1` [N-(tert-butyl)-4-(3-(pyridin-4-ylmethyl)ureido)benzenesulfonamide] as the molecule, how does the pEC50 read?
The pEC50 was 5.70 to 7.00.

With `O=C(NCc1ccncc1)Nc1ccc(S(=O)(=O)N(Cc2ccccc2)CC(F)(F)F)cc1` [N-Benzyl-4-(3-pyridin-4-ylmethyl-ureido)-N-(2,2,2-trifluoro-ethyl)-benzenesulfonamide] as the molecule, how does the pEC50 read?
The pEC50 was > 7.00.

With `O=C(NCc1ccncc1)Nc1ccc(S(=O)(=O)NCc2ccccc2)cc1` [N-Benzyl-4-(3-pyridin-4-ylmethyl-ureido)-benzenesulfonamide] as the molecule, how does the pEC50 read?
Its pEC50 is 5.70 to 7.00.

`O=C(NCc1ccncc1)Nc1ccc(S(=O)(=O)N(Cc2ccccc2)C2CC2)cc1` [N-Benzyl-N-cyclopropyl-4-(3-pyridin-4-ylmethyl-ureido)-benzenesulfonamide] was tested. Which pEC50 did it give?
Its pEC50 is > 7.00.

`CCN(Cc1ccccc1)S(=O)(=O)c1ccc(NC(=O)NCc2ccncc2)cc1` [N-Benzyl-N-ethyl-4-(3-pyridin-4-ylmethyl-ureido)-benzenesulfonamide] was tested. Which pEC50 did it give?
The pEC50 was > 7.00.

With `CC(C)N(Cc1ccccc1)S(=O)(=O)c1ccc(NC(=O)NCc2ccncc2)cc1` [N-Benzyl-N-isopropyl-4-(3-pyridin-4-ylmethyl-ureido)-benzenesulfonamide] as the molecule, how does the pEC50 read?
Its pEC50 is > 7.00.

`O=C(NCc1ccncc1)Nc1ccc(S(=O)(=O)N(Cc2ccccc2)c2ccccc2)cc1` [N-Benzyl-N-phenyl-4-(3-pyridin-4-ylmethyl-ureido)-benzenesulfonamide] was tested. Which pEC50 did it give?
The pEC50 was 5.70 to 7.00.

How did the pEC50 turn out when `CCCN(Cc1ccccc1)S(=O)(=O)c1ccc(NC(=O)NCc2ccncc2)cc1` [N-Benzyl-N-propyl-4-(3-pyridin-4-ylmethyl-ureido)-benzenesulfonamide] was run?
Its pEC50 is > 7.00.

`O=C(NCc1ccncc1)Nc1ccc(S(=O)(=O)NC2CCC2)cc1` [N-Cyclobutyl-4-(3-pyridin-4-ylmethyl-ureido)-benzenesulfonamide] was tested. Which pEC50 did it give?
The pEC50 was 5.70 to 7.00.

With `O=C(NCc1ccncc1)Nc1ccc(S(=O)(=O)NCC2CCC2)cc1` [N-Cyclobutylmethyl-4-(3-pyridin-4-ylmethyl-ureido)-benzenesulfonamide] as the molecule, how does the pEC50 read?
The pEC50 was 5.70 to 7.00.

`CN(CC1CCC1)S(=O)(=O)c1ccc(NC(=O)NCc2ccncc2)cc1` [N-Cyclobutylmethyl-N-methyl-4-(3-pyridin-4-ylmethyl-ureido)-benzenesulfonamide] was tested. Which pEC50 did it give?
The pEC50 was 5.70 to 7.00.

`O=C(NCc1ccncc1)Nc1ccc(S(=O)(=O)NC2CCCCC2)cc1` [N-Cyclohexyl-4-(3-pyridin-4-ylmethyl-ureido)-benzenesulfonamide] was tested. Which pEC50 did it give?
Its pEC50 is 5.70 to 7.00.

With `CN(C1CCCCC1)S(=O)(=O)c1ccc(NC(=O)NCc2ccncc2)cc1` [N-Cyclohexyl-N-methyl-4-(3-pyridin-4-ylmethyl-ureido)-benzenesulfonamide] as the molecule, how does the pEC50 read?
The pEC50 was 5.70 to 7.00.

With `CC(C)CN(C1CCCC1)S(=O)(=O)c1ccc(NC(=O)NCc2ccncc2)cc1` [N-Cyclopentyl-N-isobutyl-4-(3-pyridin-4-ylmethyl-ureido)-benzenesulfonamide] as the molecule, how does the pEC50 read?
Its pEC50 is > 7.00.

With `CN(C1CCCC1)S(=O)(=O)c1ccc(NC(=O)NCc2ccncc2)cc1` [N-Cyclopentyl-N-methyl-4-(3-pyridin-4-ylmethyl-ureido)-benzenesulfonamide] as the molecule, how does the pEC50 read?
Its pEC50 is 5.70 to 7.00.

`O=C(NCc1ccncc1)Nc1ccc(S(=O)(=O)NC2CC2)cc1` [N-Cyclopropyl-4-(3-pyridin-4-ylmethyl-ureido)-benzenesulfonamide] was tested. Which pEC50 did it give?
The pEC50 was 5.30 to 5.70.

`O=C(NCc1ccncc1)Nc1ccc(S(=O)(=O)NCC2CC2)cc1` [N-Cyclopropylmethyl-4-(3-pyridin-4-ylmethyl-ureido)-benzenesulfonamide] was tested. Which pEC50 did it give?
The pEC50 was 5.70 to 7.00.

`CC(C)NC(=O)c1ccc(NC(=O)NCc2ccncc2)cc1` [N-Isopropyl-4-(3-(pyridin-4-ylmethyl)ureido)benzamide] was tested. Which pEC50 did it give?
The pEC50 was 5.70 to 7.00.

How did the pEC50 turn out when `CC(C)NS(=O)(=O)c1ccc(NC(=O)NCc2ccncc2)cc1` [N-Isopropyl-4-(3-pyridin-4-ylmethyl-ureido)-benzenesulfonamide] was run?
Its pEC50 is 5.70 to 7.00.

With `CC(C)N(c1ccc(NC(=O)NCc2ccncc2)cc1)S(=O)(=O)Cc1ccccc1` [N-Isopropyl-C-phenyl-N-[4-(3-pyridin-4-ylmethyl-ureido)-phenyl]-methanesulfonamide] as the molecule, how does the pEC50 read?
The pEC50 was 5.30 to 5.70.

`CC(C)N(c1ccc(NC(=O)NCc2ccncc2)cc1)S(=O)(=O)c1ccccc1` [N-Isopropyl-N-[4-(3-pyridin-4-ylmethyl-ureido)-phenyl]-benzenesulfonamide] was tested. Which pEC50 did it give?
Its pEC50 is 5.30 to 5.70.

Same assay, conditions: Table B-3; NAMPT activation, NMN formation

`O=C(NCc1ccccc1)Nc1ccc(S(=O)(=O)NCc2ccccc2)cc1` [N-Benzyl-4-(3-benzyl-ureido)-benzenesulfonamide] was tested. Which pEC50 did it give?
The pEC50 was < 4.70.
